# Data from patent publication US6761694B2, “Methods for measuring retinal damage” (Allergan, Inc., priority 2001, dated 2004).
# Test system: retina exposed to laser (secondary retinal damage)
# Assay: Retinal thickness analysis (Retinal Thickness Analyzer) after laser photocoagulation in a patient with AMD
# Type: in vivo, human
# From the text: In order to calculate the slope of retinal thickness, the thickness of the retina must be measured. In practicing the methods of the invention, it is preferred that the retinal thickness be measured in situ as compared to histologically. Retinal thickness may be measured using publicly available devices generally configured to image optical cross-sections of the retina, and to digitally process the cross-sections to result in a measurement of retinal thickness. One such device used to practice the methods of the invention is the Retinal Thickness Analyzer ([…] Technology, Ltd., […] Zion, Israel) as disclosed in U.S. Pat. No. 6,267,477, entitled, “Three dimensional imaging apparatus and a method for use thereof”. Another device that may be used to measure retinal thickness in the methods of the invention is the Optical Coherence Tomography (OCT) Scanner (Humphrey Instruments, Inc., San Leandro, Calif.) and as described in U.S. Pat. No. 5,491,524, entitled, “Optical coherence tomography corneal mapping apparatus”. Another device that may be used to measure retinal thickness in practicing the methods of the invention is the Heidelberg Retina Tomograph (HRT; Heidelberg Engineering GmbH, Heidelberg, Germany) and as described in U.S. Pat. No. 5,170,276, entitled, “Apparatus for imaging an object”. The images obtained by such devices can then be examined, and the slope of retinal thickness measured. The slope of retinal thickness may be calculated as a ratio by measuring the change in retinal thickness as a function of distance between two or more points of the retina near the lesion site. The human retina is approximately 200-250 μm thick. Using the devices described above, it is possible to optically cross-section the retina in 20 μm increments. If the retinal thickness changes by 200 μm over a distance of 20 μm, the corresponding slope of retinal thickness would be 10. Similarly, if the retinal thickness changes 200 μm over a distance of 2 mm, the corresponding slope would be 0.1. In the foregoing examples, a slope of 10 indicates the retinal damage is less than the retinal damage where the slope of damage is 0.1. Persons skilled in the art will appreciate that the slope of retinal thickness may be calculated over any number of distances, and that the smallest distance is only limited by the resolution of the devices used to practice the methods of the invention. A person presents with blurred vision in their right eye with particular distorted images near the middle of their visual field. An ophthalmologist conducts an eye exam. […] The ophthalmologist detects the presence of an abnormal amount of soft drusen. A diagnosis of age-related macular degeneration (AMD) is made. […]
smiles,measurement,setting,value
CC12CC3CC(C)(C1)CC(N)(C3)C2 [memantine],secondary damage by retinal thickness analysis,"memantine 0.25% w/v topically prior to laser treatment, after the surgery",little secondary damage
same,visual impairment on additional laser treatments,"memantine 0.25% w/v topically, continued laser treatments",without significant visual impairment
same,change in retinal thickness,"over a distance of about 40 μm, memantine 0.25% w/v topically prior to laser treatment, twenty-one days after laser surgery",200 μm
same,slope of damage (slope of retinal thickness),"person with AMD, memantine 0.25% w/v topically prior to laser photocoagulation, scan twenty-one days after laser surgery",approximately 8
